Experimental data as given in patent publication US20240358705A1, “COMPOSITIONS AND METHODS FOR TREATMENT OF CANCER” (Board of Supervisors of Louisiana State University and …, priority 2021, published 2024).

Columns and labels:
Assay type in all cases: cell-based, mouse
[1] = system: CD8 T cells; assay: CD8 T cell differentiation by flow cytometry; conditions: 72 hours
Experimental: Lymph nodes and spleen were isolated from wild-type C57BL/6N mice. Tissue was mechanically dissociated with the back of a syringe plunger and passed through a […] filter. […] Treated cells were incubated at 37° C., 5% CO2 for the designed study duration. […] After staining, cells were pelleted, resuspended and run by a BD FACSymphony A3 flow cytometer.

[2] = system: CD8 T cells; assay: Annexin/PI apoptosis staining, CD8; conditions: 3 μM or 10 μM, 72 hours, vs DMSO
Experimental: (§1) Lymph nodes and spleen were isolated from wild-type C57BL/6N mice. Tissue was mechanically dissociated with the back of a syringe plunger and passed through a 70 M filter. […] Treated cells were incubated at 37° C., 5% CO2 for the designed study duration.
Treated CD3 T cells were prepared following the in vitro T cell activation method and incubated for 72 hours at 37° C., 5% CO2.

[3] = system: CD8 T cells; assay: XFe ATP rate assay, CD8 T cells; conditions: 10 μM, 72 hours
Experimental: as §1
Treated CD8 T cell were prepared following the in vitro T cell activation method and incubated for 72 hours at 37° C., 5% CO2. Treated BM-MDSCs were prepared followed the in vitro BM-MDSCs differentiation method. The XFe ATP rate assay preparation and analysis was conducted following the manufacturer's user guide and instructions. […] Treated cells were removed from culture, pelleted and resuspended in warm assay medium at a concentration of 3×10^6 cells/ml (1.5×10^5 cells/well) for CD8 T cells and 2.6×10^6 cells/ml (1.3×10^5 cells/well) for BM-MDSCs. Cells were adhered to the culture plate by centrifugation 200×G, for one minute with zero brake per the manufacturer's instructions for immobilization of non-adherent cells (Agilent, Santa Clara, CA). […] Results were procured using the Seahorse XF real-time ATP rate assay report generator.

O=c1nc(OC[C@@H]2COCCO2)cc2n1CCc1cc(C#CC3CC3)ccc1-2 [GLPG1205, 9-Cyclopropylethynyl-2-((S)-1-[1,4]dioxan-2-ylmethoxy)-6,7-dihydropyrimido[6,1-a]isoquinolin-4-one]
effector/memory CD8 compartment (CD62L−, CD44+), average increase compared to DMSO control ([1]; 3 μM): 23.57%
naïve CD8 T cell compartment (CD62L+, CD44−), average reduction compared to DMSO control ([1]; 3 μM): 32.54%
effector/memory CD8 compartment (CD62L−, CD44+), average increase compared to DMSO control ([1]; 10 μM): 37.93%
naïve CD8 T cell compartment (CD62L+, CD44−), average reduction compared to DMSO control ([1]; 10 μM): 74.69%
CD8 apoptosis (Annexin/PI) [2]: significantly reduced CD8 apoptosis
percent of ATP generated by OXPHOS ([3]; DMSO 49%): 39.7%
percent of ATP generated by glycolysis ([3]; DMSO 51%): 60.3%
ATP production rate through mitochondrial OXPHOS (mitoATP) ([3]; DMSO 392.74): 486.75 pmol/min
ATP production rate through glycolysis (glycoATP) ([3]; DMSO 409.61): 737.62 pmol/min
total ATP production rate ([3]; DMSO control 816.19): 1224.27 pmol/min
OCR, ECAR and PER ([3]; vs DMSO): raises the overall OCR, ECAR, and PER
